Measured values as given in patent publication US20230181524A1, “PHARMACEUTICAL COMBINATION AND USE THEREOF” (NATURAL MEDICINE INSTITUTE OF ZHEJIANG YANGSHENGTANG CO., …, priority 2020, published 2023).
Entries after “also recorded” stand apart in the source; their conditions may differ. Like-named read-outs stand apart in the source and are kept apart here.

Tests used:
[1] = system: HCT116 human colon cancer cells; experiment: cells; conditions: HCT116 cells
Procedure: (§1) (1) Cells were plated in a 10 cm culture plate to grow a density of about 90%. The medium was removed, and the adherent cells were washed once with a PBS buffer. 1 mL of trypsin was added, and immediately discarded after mixing well. The cells were placed in the incubator and digested for about 5 min, and then about 10 ml of fresh medium was added. 10 μL was taken for counting.
(§2) (2) 10 μL of the well-mixed cells were taken and mixed into 10 μL of Trypan Blue solution, and counted.
(§3) (3) After counting, the cells were diluted to 1×10^5 cells/ml. The diluted cells were mixed well, and plated into a 24-well plate with 500 μL per well, i.e., about 50,000 cells per well.
(§4) (4) The cells plated in the 24-well plate were cultured for about 24h, and then drugs were added. Various test groups comprise 5 groups as follows: the single-drug group of PKF118-310 (with a concentration of 0.1 μM), the group of ascorbic acid (with a concentration of 0.5 mM), the group of PKF118-310 (with a concentration of 0.1 μM) in combination with ascorbic acid (with a concentration of 0.5 mM); the control group that is a cell group to which only solvent DMSO is added; and the blank group that is a group to which no cell is added and only solvent (DMSO) is added.
(§5) (5) After 24h of dosing, the medium was discarded. About 150 μL of trypsin was added and then discarded. The cells were digested for 5 min;
(§6) (6) After digestion, equivalent amounts of PBS were added into each well and mixed uniformly. Then, 10 μL/well of Trypan Blue solution was added and mixed uniformly. 10 μL of the well-mixed solution was taken and counted. In accordance with “Cell viability=Cell Count of Test Group/Cell Count of Control Group×100%”, the cell viability of various groups was calculated.
(§7) The inhibitory effect of PKF118-310 on the MC38 human colon cancer cells and the HCT116 human […] cancer cells was detected in accordance with the corresponding method of Example 1.

[2] = system: MC38 human colon cancer cells; experiment: Cell viability, method of Example 1; conditions: MC38 cells
Procedure: as §1, §2, §3, §4, §5, §6, §7

[3] = system: HOS human osteosarcoma cells; experiment: Migration of osteosarcoma cells (scratch lines, photographs at 12h and 24h); assay type: cell-based; conditions: 0.1 μM PKF118-310 in combination with 0.5 mM Vc
Procedure: (§8) (1) HOS human osteosarcoma cells and 143B human osteosarcoma cells were subcultured at 37° C., 5% CO2 in an incubator with a RPMI-1640 medium containing 10% fetal bovine serum.
(§9) 10 μL was taken for counting.
(§10) The diluted cells were plated into a 12-well plate with 1 mL per well, i.e., about 100,000 cells per well.
(§11) (4) The cells plated in the 12-well plate were cultured to a density of more than 80%. Then, a control group (to which DMSO was added), as well as groups to which 0.1 μM of PKF118-310, 0.5 mM Vc, and a combination of 0.1 μM of PKF118-310 with 0.5 mM sodium ascorbate were respectively added were prepared. Parallel lines were drawn with the tip of a 10 μL pipette at the bottom of the plate.
(§12) (5) The cells were placed into a 37° C., 5% CO2 incubator for incubation, and observed and recorded by photographs at 12h and 24h.

[4] = system: 143B human osteosarcoma cells; experiment: as above; assay type: cell-based; conditions: 143B cells, 0.1 μM PKF118-310 in combination with 0.5 mM Vc
Procedure: as §8, §9, §10, §11, §12

[5] = system: 3AO human ovarian cancer cells; experiment: cells; conditions: 3AO cells
Procedure: as §1, §2, §3, §4, §5, §6
(§13) The inhibitory effect of PKF118-310 on the SKOV3 human ovarian cancer cells and the 3AO human ovarian cancer cells was detected in accordance with the corresponding method of Example 1.

[6] = system: SKOV3 human ovarian cancer cells; experiment: cells; conditions: SKOV3 cells
Procedure: as §1, §2, §3, §4, §5, §6, §13

[7] = system: HOS human osteosarcoma cells; experiment: Cell counts of drug combination administration (Trypan Blue), cell viability
Procedure: as §1, §2, §3
(§14) (4) The cells plated in the 24-well plate were cultured for about 24h, and then drugs were added. […]
as §5, §6
(§15) The coefficient of drug in interaction (CDI) was used to evaluate the nature of the interaction between the two drugs. The test groups were divided into the control group, the group of A drug, the group of B drug and the group of AB in combination, and used for detecting the cell viability in A, B and AB groups, respectively.

[8] = system: 143B human osteosarcoma cells; experiment: as above; conditions: 143B cells
Procedure: as §1, §2, §3, §14, §5, §6, §15

HEK293 cells = experiment: Cell viability compared with HEK293 cells (specificity); assay type: cell-based; conditions: in combination with ascorbic acid
Procedure: HEK293 cells, HOS human osteosarcoma cells, and 143B human osteosarcoma cells were subcultured in an incubator at 37° C., 5% CO2 using a RPMI-1640 medium containing 10% fetal bovine serum (FBS).
as §9
(5) After 24h of dosing, the medium was discarded. […] The cells were digested for 5 min;

143B cells = experiment: Osteosarcoma tumor model in nude mice (tumor volume, Luciferin fluorescence imaging); assay type: in vivo, nude mice (BALB/c-nu)
Procedure: (1) Tumor preparation in nude mice. 6-8-week-old female nude mice (BALB/c-nu) (purchased from Vital River Laboratory Animal Technology Co., Ltd.) were selected. 143B cells were cultured in vitro to the log phase. The cells were collected and re-suspended in a PBS buffer solution. The collected cells were subcutaneously injected to the mammary glands of nude mice with 5×10^6 143B cells/nude mouse to establish a model of tumor in situ.

[9] = 0.3 μM in combination with 0.5 mM sodium ascorbate
[10] = 0.1 μM in combination with 0.5 mM sodium ascorbate
[11] = 0.5 μM in combination with 0.5 mM sodium ascorbate

Cn1ncnc2c(=O)n(C)c(=O)nc1-2 [PKF118-310]
CDI value [1, 9]: 0.24 | cell viability [1, 9]: 22% | cell viability ([1]; single-drug 0.3 μM): 92% | CDI value [2, 9]: 0.15 | cell viability [2, 9]: 11% | cell viability ([2]; single-drug 0.3 μM): 88% | effect on the body weight of mice (PKF118-310 0.7 mg/kg s.c. in combination with ascorbate 1 g/kg i.v. every 3 days): no effect on the body weight of mice | effect on the body weight of mice (alone, PKF118-310 0.7 mg/kg s.c. or ascorbate 1 g/kg i.v. every 3 days): no effect on the body weight of mice | migration of cells [3]: significantly inhibit the migration | migration of cells [4]: significantly inhibit the migration | CDI value [5, 10]: 0.35 | cell viability [5, 10]: 31% | CDI value [5, 9]: 0.19 | cell viability [5, 9]: 13% | cell viability ([5]; 0.05 M in combination with 0.5 mM sodium ascorbate): 58% | CDI value ([5]; in combination with 0.5 mM sodium ascorbate): 0.60 | cell viability ([5]; single-drug 0.1 μM): 92% | cell viability ([5]; single-drug 0.3 μM): 69% | cell viability ([5]; single-drug 0.05 M): 101% | CDI value [6, 9]: 0.31 | cell viability [6, 9]: 28% | CDI value [6, 11]: 0.34 | cell viability [6, 11]: 20% | cell viability ([6]; single-drug 0.3 μM): 94% | cell viability ([6]; single-drug 0.5 μM): 61% | CDI value (coefficient of drug interaction) [7, 10]: 0.12 | cell viability [7, 10]: 10% | cell viability ([7]; single-drug 0.1 μM, 24h): 94% | CDI value [8, 10]: 0.04 | cell viability [8, 10]: 2% | cell viability ([8]; single-drug 0.1 μM, 24h): 91% | specificity of inhibition of tumor cell viability as compared with the HEK293 cells (HEK293 cells): can specifically inhibit the cell viability of the 143B cells and the HOS cells; also recorded: can specifically inhibit the activity of the HCT116 cells and the MC38 cells | tumor growth, tumor volume with time (143B cells; 0.7 mg/kg PKF118-310 s.c. + 1 g/kg ascorbic acid i.v. every 3 days, 6 times, vs blank control and single-drug groups (P<0.001)): significantly inhibits the tumor growth | tumor volume on Day 21 (143B cells; 0.7 mg/kg PKF118-310 s.c. + 1 g/kg ascorbic acid i.v., compared with blank control, PKF118-310 and sodium ascorbate groups): substantially smaller | tumor growth, Luciferin fluorescence imaging (143B cells; Day 21, 0.7 mg/kg PKF118-310 s.c. + 1 g/kg ascorbic acid i.v. every 3 days, 6 times, vs blank control and single-drug groups): significantly inhibits the tumor growth
